Results reported in patent US5972932A, “Anesthetic method and composition” (Eli Lilly and Company, priority 1997, dated 1999).

Legend:
[1] = test system: muscarinic cholinergic receptor; assay: pharmacological studies, muscarinic cholinergic receptor activity
[2] = test system: 5-HT2C (formorly knowm as 5-HT1C receptor) receptor; assay: pharmacological studies, 5-HT2C receptor activity; conditions: formerly 5-HT1C receptor

## Cc1cc2c(s1)Nc1ccccc1N=C2N1CCN(C)CC1 [olanzapine, 2-methyl-4-(4-methyl-1-piperazinyl)-10H-thieno[2,3-b][1,5]benzodiazepine]
[1]
  muscarinic cholinergic receptor activity: has muscarinic cholinergic receptor activity
[2]
  activity at the 5-HT2C receptor: active
